Measured values: patent US6103766A, “Phenylsulfonamide-phenylethylamines useful as dopamine receptors” (Pharmacia & Upjohn Company, priority 1999, dated 2000)
Where “and” joins values, the source holds several entries; their conditions need not be identical. Identical values can stand only once. Like-named read-outs stand apart in the source and are kept apart here.

How the values were obtained:
dopamine D2 receptor = biological target: T1, dopamine D2 receptor (Rattus norvegicus, UniProt P61169); test: Competition binding at cloned rat dopamine D2 receptor (D2-DOP-CLONE) with [3H]-86170; conditions: cloned rat receptor in CHO-K1 cells, [3H]-86170 (62 Ci/mmol, 2 nM), eleven dilutions, read-out: Ki (Receptor binding, IC50 values)
T1 construct: expressed in transfected cells; host or cells: CHO-K1
T1 sequence (P61169 whole entry): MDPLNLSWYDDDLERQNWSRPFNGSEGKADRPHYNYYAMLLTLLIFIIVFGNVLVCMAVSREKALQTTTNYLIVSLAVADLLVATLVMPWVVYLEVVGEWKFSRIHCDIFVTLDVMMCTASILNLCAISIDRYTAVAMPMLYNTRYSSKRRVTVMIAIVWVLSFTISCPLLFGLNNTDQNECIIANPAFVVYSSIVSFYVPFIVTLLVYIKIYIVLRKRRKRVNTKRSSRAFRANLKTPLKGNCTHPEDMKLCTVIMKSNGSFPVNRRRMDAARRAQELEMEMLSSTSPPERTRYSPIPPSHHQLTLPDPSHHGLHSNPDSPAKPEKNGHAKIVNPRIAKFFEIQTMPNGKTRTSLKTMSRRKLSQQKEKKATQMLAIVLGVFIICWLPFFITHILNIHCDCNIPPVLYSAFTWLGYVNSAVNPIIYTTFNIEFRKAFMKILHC
Description: (§1) Competition binding experiments employed eleven dilutions of test compounds of Formula I competing with [^3 H]-5-(dipropylamino)-5,6-dihydro-4H-imidazo(4,5,1-ij)quinolin-2(1H)-one (R-enantiomer) ("86170") (62 Ci/mmol, 2nM) and [^3 H]-spiperone ("SPI") (107 Ci/mmol, 0.5 nM) for D2 and D3 binding sites, respectively. (Lahti, R. A., Eur. J. Pharmacol., 202, 289 (1991)) In each experiment, cloned rat receptors expressed in CHO-K1 cells were used. (Chio, C. L., Nature, 343, 266 (1990); and Huff, R. M., Mol. Pharmacol. 45, 51-60 (1993)).

dopamine D3 receptor = biological target: T2, dopamine D3 receptor (Rattus norvegicus, UniProt P19020); test: Competition binding at cloned rat dopamine D3 receptor (D3-DOP-CLONE) with [3H]-spiperone; conditions: cloned rat receptor in CHO-K1 cells, [3H]-spiperone (107 Ci/mmol, 0.5 nM), eleven dilutions
T2 construct: expressed in transfected cells; host or cells: CHO-K1
T2 sequence (P19020 whole entry): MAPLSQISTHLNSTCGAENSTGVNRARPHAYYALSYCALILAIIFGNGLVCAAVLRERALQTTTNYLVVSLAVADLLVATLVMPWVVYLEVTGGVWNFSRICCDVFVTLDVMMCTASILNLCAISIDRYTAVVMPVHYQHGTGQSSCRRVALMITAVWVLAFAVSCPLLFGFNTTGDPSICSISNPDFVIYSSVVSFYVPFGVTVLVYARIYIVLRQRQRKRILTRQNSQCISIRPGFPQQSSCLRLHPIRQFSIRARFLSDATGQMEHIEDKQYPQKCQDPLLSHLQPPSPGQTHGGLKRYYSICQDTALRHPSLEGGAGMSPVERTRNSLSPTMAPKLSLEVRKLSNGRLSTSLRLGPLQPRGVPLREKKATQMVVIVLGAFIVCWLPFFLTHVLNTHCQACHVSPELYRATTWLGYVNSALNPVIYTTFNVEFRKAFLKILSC
Description: as §1

[1] = read-out: Ki (Receptor binding, IC50 values)
[2] = Ki (Receptor binding, IC50 values)

SMILES | Ki (dopamine D3 receptor; [1]) | Ki (dopamine D2 receptor) | Ki (dopamine D3 receptor; [2])
CCCN(CCC)CCc1ccc(NS(=O)(=O)c2ccc(Cl)cc2)cc1 [Example 1, 2-[4-(4-chlorobenzenesulfonamido)phenyl]ethyl-1-dipropylamine] |  | 629 nM | 3.7 nM
CCCN(CCC)CCc1ccc(NS(=O)(=O)c2ccc(NC(C)=O)cc2)cc1 [Example 2, 2-[4-(4-acetamidobenzenesulfonamido)phenyl]ethyl-1-dipropylamine] | 34 nM | 1070 nM | 
CCCNCCc1ccc(NS(=O)(=O)c2ccc(Br)cc2)cc1 [Example 7, 2-[4-(4-bromobenzenesulfonamido)phenyl]ethyl-propylamine] |  | 623 nM | 14 nM
CCCNCCc1cccc(NS(=O)(=O)c2cccc(Cl)c2)c1 [Example 10, 2-[3-(3-chlorobenzenesulfonamido)phenyl]ethyl-1-propylamine] | 111 nM | 1080 nM | 
CCCNCCc1ccc(NS(=O)(=O)c2ccc(Cl)cc2)cc1 [Example 4, 2-[4-(4-chlorobenzenesulfonamido)phenyl]ethyl-1-propylamine] |  | 677 nM | 18 nM
CCCNCCc1cccc(NS(=O)(=O)c2ccccc2F)c1 [Example 9, 2-[3-(2-fluorobenzenesulfonamido)phenyl]ethyl-1-propylamine] |  | 645 nM | 54 nM

Continued, in another order:

Ki (dopamine D3 receptor; [1]) | SMILES | Ki (dopamine D2 receptor) | Ki (dopamine D3 receptor; [2])
165 nM | CCCNCCc1ccc(NS(=O)(=O)c2ccc(F)cc2Cl)cc1 [Example 6, 2-[4-(2-chloro-4-fluorobenzenesulfonamido)phenyl]ethyl-1-propylamine] | 2180 nM | 
28 nM | CCCNCCc1ccc(NS(=O)(=O)c2ccc(OC(F)(F)F)cc2)cc1 [Example 5, 2-[4-(4-trifluoromethoxybenzenesulfonamido)phenyl]ethyl-1-propylamine] | 2390 nM | 
33 nM | CCCNCCc1ccc(NS(=O)(=O)c2ccc(C(F)(F)F)cc2)cc1 [Example 8, 2-[4-[(4-trifluoromethyl)benzenesulfonamido]phenyl]ethyl-1-propylamine] | 1530 nM | 
14 nM and 26 nM | CCCNCCc1ccc(NS(=O)(=O)c2ccc(Cl)cc2Cl)cc1 [Example 3, 2-[4-(2,4-dichlorobenzenesulfonamido)phenyl]ethyl-1-propylamine] | 760 nM | 
